Results on 32 compounds are retold here after patent publication US8778941B2, “TRPM8 antagonists and their use in treatments” (AMGEN Inc., priority 2011, dated 2014).

Structures are written as SMILES.

The target of this experiment is T1, human TRPM8 (Homo sapiens, UniProt Q7Z2W7).
T1 construct: expressed in transfected cells; host or cells: Chinese hamster ovary (CHO) cells, T-REx tetracycline-inducible expression system (Invitrogen), co-transfected with pcDNA3.1 jellyfish aequorin
T1 sequence (Q7Z2W7 whole entry): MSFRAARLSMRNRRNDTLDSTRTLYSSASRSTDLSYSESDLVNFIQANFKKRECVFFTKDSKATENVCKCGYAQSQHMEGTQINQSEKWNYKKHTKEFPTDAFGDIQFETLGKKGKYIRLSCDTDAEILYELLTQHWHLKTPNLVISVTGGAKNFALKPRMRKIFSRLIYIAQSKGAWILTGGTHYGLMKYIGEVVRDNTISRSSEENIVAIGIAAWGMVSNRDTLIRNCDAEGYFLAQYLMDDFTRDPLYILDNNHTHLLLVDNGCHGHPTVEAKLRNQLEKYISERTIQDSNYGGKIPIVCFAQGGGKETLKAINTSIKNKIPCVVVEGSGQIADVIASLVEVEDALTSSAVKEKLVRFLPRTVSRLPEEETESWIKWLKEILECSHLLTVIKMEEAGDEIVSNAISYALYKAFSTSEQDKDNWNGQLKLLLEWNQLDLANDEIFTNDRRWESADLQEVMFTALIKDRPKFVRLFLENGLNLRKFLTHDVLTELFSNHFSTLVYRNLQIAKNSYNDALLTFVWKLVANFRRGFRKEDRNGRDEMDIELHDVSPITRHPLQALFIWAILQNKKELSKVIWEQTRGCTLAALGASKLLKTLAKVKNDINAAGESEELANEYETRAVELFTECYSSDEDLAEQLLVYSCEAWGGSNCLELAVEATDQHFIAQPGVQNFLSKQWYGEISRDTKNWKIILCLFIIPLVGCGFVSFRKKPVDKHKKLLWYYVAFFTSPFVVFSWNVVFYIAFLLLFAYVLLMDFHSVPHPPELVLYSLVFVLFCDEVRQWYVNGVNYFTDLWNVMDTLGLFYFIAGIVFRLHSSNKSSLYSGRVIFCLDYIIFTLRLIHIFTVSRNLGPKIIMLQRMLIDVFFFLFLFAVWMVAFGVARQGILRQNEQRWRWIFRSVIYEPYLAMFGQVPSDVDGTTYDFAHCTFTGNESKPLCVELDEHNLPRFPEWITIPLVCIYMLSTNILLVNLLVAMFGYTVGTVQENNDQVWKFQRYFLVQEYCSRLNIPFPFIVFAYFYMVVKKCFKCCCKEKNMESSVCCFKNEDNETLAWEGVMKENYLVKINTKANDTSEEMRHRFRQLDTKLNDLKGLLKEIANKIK
The experiment in a line: Luminescence readout assay for measuring intracellular calcium (aequorin), hTRPM8 antagonism. The class given is cell-based. Particulars: CHO cell line expressing human TRPM8 and aequorin; activation by icilin, L-menthol or cold buffer (table does not say which). For orientation: Calcium flux is commonly read through the fluorescence of an indicator in the cells.
By IC50 is commonly meant the concentration at which inhibition is half-maximal. Take `C[C@@H](NC(=O)N[C@@H](c1ccc(C(F)(F)F)c(F)c1)c1ncccc1C(F)(F)F)C(F)(F)F` [Example 152, 1-((S)-(3-fluoro-4-(trifluoro-methyl)-phenyl)(3-(trifluoro-methyl)-pyridin-2-yl)-methyl)-3-((R)-1,1,1-trifluoro-propan-2-yl)-urea (2,2,2-trifluoro-acetate)]: the half-inhibitory concentration (IC50) was found to be 70 nM.

As to `C[C@H](NC(=O)N[C@@H](c1ccc(C(F)(F)F)cc1)c1ccccc1Br)C(F)(F)F` [Example 154, 1-((S)-(2-bromophenyl) (4-(trifluoro-methyl)-phenyl)-methyl)-3-((S)-1,1,1-trifluoro-propan-2-yl)-urea], the IC50 amounted to 900 nM. The figure for `O=C(Nc1cncnc1)N[C@@H](c1ccc(C(F)(F)F)c(F)c1)c1ncccc1C(F)(F)F` [Example 155, (S)-1-((3-fluoro-4-(trifluoro-methyl)-phenyl)(3-(trifluoro-methyl)-pyridin-2-yl)-methyl)-3-(pyrimidin-5-yl)urea (2,2,2-trifluoro-acetate)] is 62 nM. The figure for `C=CCc1cccnc1[C@@H](NC(=O)N[C@@H](C)C(F)(F)F)c1ccc(C(F)(F)F)cc1` [Example 158, 1-((S)-(3-allylpyridin-2-yl)(4-(trifluoro-methyl)-phenyl)-methyl)-3-((S)-1,1,1-trifluoro-propan-2-yl)-urea] is 28 nM; for `COc1ncc(NC(=O)N[C@@H](c2ccc(C(F)(F)F)cc2)c2ncccc2C(F)(F)F)cn1` [Example 159, (S)-1-(2-Methoxypyrimidin-5-yl)-3-((4-(trifluoromethyl)-phenyl)(3-(trifluoromethyl)pyridin-2-yl)methyl)urea] it is 407 nM; for `COc1ncc(NC(=O)N[C@@H](c2ccc(C(F)(F)F)cc2)c2ncccc2F)cn1` [Example 160, (S)-1-((3-fluoropyridin-2-yl)(4-(trifluoro-methyl)-phenyl)-methyl)-3-(2-methoxy-pyrimidin-5-yl)urea] it is 1650 nM. Regarding `Cn1ccc(NC(=O)N[C@@H](c2ccc(C(F)(F)F)cc2)c2ncccc2F)cc1=O` [Example 161, (S)-1-((3-fluoropyridin-2-yl)(4-(trifluoro-methyl)-phenyl)-methyl)-3-(1-methyl-2-oxo-1,2-dihydropyridin-4-yl)urea], the IC50 was found to be 1250 nM.

Turning to `Cn1cc(NC(=O)N[C@@H](c2ccc(C(F)(F)F)cc2)c2ncccc2F)ccc1=O` [Example 162, (S)-1-((3-fluoropyridin-2-yl)(4-(trifluoro-methyl)-phenyl)-methyl)-3-(1-methyl-6-oxo-1,6-dihydropyridin-3-yl)urea], the half-inhibitory concentration (IC50) was 491 nM.

Regarding `O=C(Nc1ccc[nH]c1=O)N[C@@H](c1ccc(C(F)(F)F)cc1)c1ncccc1F` [Example 163, (S)-1-((3-fluoropyridin-2-yl)(4-(trifluoro-methyl)-phenyl)-methyl)-3-(2-oxo-1,2-dihydropyridin-3-yl)urea], the half-inhibitory concentration (IC50) stood at 76 nM. Consider `O=C(Nc1cc[nH]c(=O)c1)N[C@@H](c1ccc(C(F)(F)F)cc1)c1ncccc1F` [Example 164, (S)-1-((3-fluoropyridin-2-yl)(4-(trifluoro-methyl)-phenyl)-methyl)-3-(2-oxo-1,2-dihydropyridin-4-yl)urea], for which the half-inhibitory concentration (IC50) came out at 2880 nM. On to `O=C(Nc1ccc(=O)[nH]c1)N[C@@H](c1ccc(C(F)(F)F)cc1)c1ncccc1F` [Example 165, (S)-1-((3-fluoropyridin-2-yl)(4-(trifluoro-methyl)-phenyl)-methyl)-3-(6-oxo-1,6-dihydropyridin-3-yl)urea], for which the IC50 amounted to 3210 nM. Turning to `O=C1Cc2ccc(NC(=O)N[C@@H](c3ccc(C(F)(F)F)cc3)c3ncccc3F)cc2N1` [Example 166, (S)-1-((3-fluoropyridin-2-yl)(4-(trifluoro-methyl)-phenyl)-methyl)-3-(2-oxoindolin-6-yl)urea], the IC50 amounted to 86 nM. Next, `O=C(N[C@@H](c1ccc(C(F)(F)F)c(F)c1)c1ncccc1C(F)(F)F)N1CCOCC1` [Example 167, (S)—N-((3-Fluoro-4-(trifluoromethyl)phenyl)(3-(trifluoromethyl)pyridin-2-yl)methyl)morpholine-4-carboxamide 2,2,2-trifluoroacetate]: 328 nM. Consider `CCCc1cccnc1[C@@H](NC(=O)Nc1cccnc1)c1ccc(C(F)(F)F)cc1` [Example 168, (S)-1-((3-Propylpyridin-2-yl)(4-(trifluoromethyl)phenyl)-methyl)-3-(pyridin-3-yl)urea], for which the IC50 is 67 nM. Regarding `CC(C)(C)OC(=O)N[C@@H](c1ccc(C(F)(F)F)cc1)c1ccccn1` [Example 169, (S)-tert-Butyl(pyridin-2-yl(4-(trifluoromethyl)phenyl)methyl)-carbamate 2,2,2-trifluoroacetate], the half-inhibitory concentration (IC50) stood at 663 nM.

Take `CCOC(=O)N[C@@H](c1ccc(C(F)(F)F)cc1)c1ncccc1C(F)(F)F` [Example 170, (S)-Ethyl((4-(trifluoromethyl)phenyl)(3-(trifluoromethyl)-pyridin-2-yl)methyl)carbamate]: the half-inhibitory concentration (IC50) was determined as 147 nM. On to `O=C(Nc1ccc(F)cc1)NC(c1ccccc1)c1ccc(C(F)(F)F)cc1` (centres unmarked) [Example 171, 1-(4-Fluorophenyl)-3-(phenyl(4-(trifluoromethyl)phenyl)-methyl)urea], for which the half-inhibitory concentration (IC50) amounted to 915 nM.

With `O=C(N[C@@H](c1ccc(C(F)(F)F)cc1)c1ccccn1)OCc1ccccc1` [Example 172, (S)-Benzyl(pyridin-2-yl(4-(trifluoromethyl)phenyl)methyl)-carbamate 2,2,2-trifluoroacetate], the 50% inhibitory concentration (IC50) is 360 nM.

With `CC(C)(C)OC(=O)N[C@@H](c1ccc(C(F)(F)F)cc1)c1ncccc1Br` [Example 173, (S)-tert-Butyl((3-bromopyridin-2-yl)(4-(trifluoromethyl)-phenyl)methyl)carbamate], the IC50 turned out to be 299 nM. As for `CC(C)(C)OC(=O)N[C@@H](c1ccc(OC(F)(F)F)c(F)c1)c1ncccc1F` [Example 174, (S)-tert-Butyl((3-fluoro-4-(trifluoromethoxy)phenyl)(3-fluoropyridin-2-yl)methyl)carbamate], the half-maximal inhibitory concentration (IC50) is 474 nM.

`CC(C)OC(=O)N[C@@H](c1ccc(OC(F)(F)F)c(F)c1)c1ncccc1F` [Example 175, (S)-isopropyl ((3-fluoro-4-(trifluoromethoxy)phenyl)(3-fluoropyridin-2-yl)methyl)carbamate]: the 50% inhibitory concentration (IC50) stood at 68 nM. As for `O=C(N[C@@H](c1ccc(OC(F)(F)F)c(F)c1)c1ncccc1F)OC1CCOCC1` [Example 176, (S)-tetrahydro-2H-pyran-4-yl ((3-fluoro-4-(trifluoromethoxy)phenyl)(3-fluoropyridin-2-yl)methyl)carbamate], the IC50 came to 211 nM. Regarding `O=C(N[C@@H](c1ccc(OC(F)(F)F)c(F)c1)c1ncccc1F)OC1COC1` [Example 177, (S)-oxetan-3-yl ((3-fluoro-4-(trifluoromethoxy)phenyl)(3-fluoropyridin-2-yl)methyl)carbamate], the IC50 was 517 nM. Consider `O=C1CCC(OC(=O)N[C@@H](c2ccc(OC(F)(F)F)c(F)c2)c2ncccc2F)CN1` (stereo partly drawn) [Example 178, 6-Oxopiperidin-3-yl((S)-(3-fluoro-4-(trifluoromethoxy)phenyl)(3-fluoropyridin-2-yl)methyl)carbamate], for which the IC50 was 2060 nM. Next, `O=C(Nc1cccc2ncccc12)N[C@@H](c1ccc(C(F)(F)F)cc1)c1ncccc1C(F)(F)F` [Example 179, (S)-1-(Quinolin-5-yl)-3-((4-(trifluoromethyl)phenyl)(3-(trifluoromethyl)pyridin-2-yl)methyl)urea]: 77 nM; `O=C(Nc1ccc(C(=O)O)cc1)N[C@@H](c1ccc(OC(F)(F)F)c(F)c1)c1ncccc1F` [Example 180, (S)-4-(3-((3-Fluoro-4-(trifluoromethoxy)phenyl)(3-fluoropyridin-2-yl)methyl)ureido)benzoic acid]: 3240 nM; `O=C(Nc1ccccc1Cl)N[C@@H](c1ccc(C(F)(F)F)cc1)c1ncccc1C(F)(F)F` [Example 181, (S)-1-(2-chlorophenyl)-3-((4-(trifluoro-methyl)phenyl) (3-(trifluoro-methyl)pyridin-2-yl)methyl)urea (2,2,2-trifluoro-acetate)]: 142 nM. Consider `COC(=O)c1cccc(NC(=O)N[C@@H](c2ccc(C(F)(F)F)cc2)c2ncccc2C(F)(F)F)c1C` [Example 182, (S)-methyl 2-methyl-3-(3-((4-(trifluoro-methyl)phenyl) (3-(trifluoro-methyl)pyridin-2-yl)methyl)ureido)benzoate (2,2,2-trifluoro-acetate)], for which the IC50 was 425 nM. As to `COc1ccc(C)cc1NC(=O)N[C@@H](c1ccc(C(F)(F)F)cc1)c1ncccc1C(F)(F)F` [Example 183, (S)-1-(2-methoxy-5-methylphenyl)-3-((4-(trifluoro-methyl)phenyl) (3-(trifluoro-methyl)pyridin-2-yl)methyl)urea (2,2,2-trifluoro-acetate)], the IC50 was 560 nM. Regarding `O=C(NCc1ccc(Cl)c(Cl)c1)N[C@@H](c1ccc(C(F)(F)F)cc1)c1ncccc1C(F)(F)F` [Example 184, (S)-1-(3,4-dichlorobenzyl)-3-((4-(trifluoro-methyl)phenyl) (3-(trifluoro-methyl)pyridin-2-yl)methyl)urea (2,2,2-trifluoro-acetate)], the IC50 was found to be 583 nM.

Turning to `O=C(NC1CCCc2ccccc21)N[C@@H](c1ccc(C(F)(F)F)cc1)c1ncccc1C(F)(F)F` (stereo partly drawn) [Example 185, 1-(1,2,3,4-tetrahydro-naphthalen-1-yl)-3-((S)-(4-(trifluoromethyl)phenyl)(3-(trifluoromethyl)pyridin-2-yl)methyl)urea (2,2,2-trifluoro-acetate)], the half-inhibitory concentration (IC50) was found to be 739 nM. For the compound `Cc1cc(C)c(NC(=O)N[C@@H](c2ccc(C(F)(F)F)cc2)c2ncccc2C(F)(F)F)c(C)c1` [Example 186, (S)-1-mesityl-3-((4-(trifluoro-methyl)phenyl) (3-(trifluoro-methyl)pyridin-2-yl)methyl)urea (2,2,2-trifluoro-acetate)], the half-inhibitory concentration (IC50) worked out at 1110 nM.
